Reference: the NIST ThermoML archive (doi:10.1016/j.jct.2005.12.010)
Where “and” joins values, the source holds several entries; their conditions need not be identical. Identical values can stand only once.

Experiments:
[1] = 101 kPa, Liquid
[2] = xn = mol fraction of the nth substance listed; conditions: 101 kPa, Liquid

CCCCO [butan-1-ol]
[1]
Conditions | mass density [kg/m3] | speed of sound [m/s] | viscosity [mPa·s]
293.15 K | 809.5 | 1257 | 2.941
298.15 K | 805.75 | 1240 | 2.571
303.15 K | 801.8 | 1224 | 2.255

CCCCO [butan-1-ol] + CC1CCCC1
[2], x2 = 0
Conditions | speed of sound [m/s]
293.15 K | 1257
298.15 K | 1240
303.15 K | 1224

CCC(C)O (stereo unspecified) [butan-2-ol]
[1]
Conditions | mass density [kg/m3] | speed of sound [m/s] | viscosity [mPa·s]
293.15 K | 806.84 | 1230 | 3.623
298.15 K | 802.72 | 1212 | 2.995
303.15 K | 798.51 | 1194 | 2.493

CCC(C)O (stereo unspecified) [butan-2-ol] + CC1CCCC1
[2], x2 = 0
Conditions | speed of sound [m/s]
293.15 K | 1230
298.15 K | 1212
303.15 K | 1194

CCO [ethanol]
[1]
Conditions | mass density [kg/m3] | speed of sound [m/s] | viscosity [mPa·s]
293.15 K | 789.75 | 1162 | 1.187
298.15 K | 785.46 | 1145 | 1.082
303.15 K | 781.15 | 1128 | 0.987

CCO [ethanol] + CC1CCCC1
[2], x2 = 0
Conditions | mass density [kg/m3] | speed of sound [m/s]
293.15 K | 789.75 | 1162
298.15 K | 785.46 | 1145
303.15 K | 781.15 | 1128

CC1CCCC1 [methylcyclopentane]
[1]
Conditions | mass density | speed of sound [m/s] | viscosity [mPa·s]
293.15 K | 746.64 kg/m3 | 1197 | 0.504
298.15 K | 741.94 kg/m3 and 741.9 kg/m3 | 1174 | 0.476
303.15 K | 737.21 kg/m3 | 1150 | 0.45

CC1CCCC1 [methylcyclopentane] + CC(C)O
speed of sound [m/s], [2]
Conditions | 293.15 K | 298.15 K | 303.15 K
x1 = 0.0478 | 1154 | 1136 | 1118
x1 = 0.1003 | 1152 | 1134 | 1115
x1 = 0.2092 | 1150 | 1130 | 1110
x1 = 0.2989 | 1150 | 1129 | 1108
x1 = 0.4151 | 1150 | 1129 | 1108
x1 = 0.4967 | 1152 | 1131 | 1109
x1 = 0.603 | 1156 | 1134 | 1111
x1 = 0.7118 | 1162 | 1140 | 1117
x1 = 0.8061 | 1170 | 1147 | 1124
x1 = 0.9026 | 1180 | 1157 | 1134
x1 = 0.9555 | 1187 | 1164 | 1141
x1 = 1 | 1197 | 1174 | 1150

CC1CCCC1 [methylcyclopentane] + CCC(C)O
speed of sound [m/s], [2]
Conditions | 293.15 K | 298.15 K | 303.15 K
x1 = 0.0503 | 1223 | 1204 | 1186
x1 = 0.0966 | 1216 | 1198 | 1179
x1 = 0.198 | 1205 | 1185 | 1165
x1 = 0.3041 | 1194 | 1173 | 1153
x1 = 0.4088 | 1186 | 1164 | 1143
x1 = 0.5084 | 1180 | 1158 | 1137
x1 = 0.5961 | 1177 | 1155 | 1133
x1 = 0.7045 | 1176 | 1154 | 1132
x1 = 0.8151 | 1180 | 1157 | 1134
x1 = 0.9065 | 1185 | 1162 | 1139
x1 = 0.9532 | 1189 | 1166 | 1143
x1 = 1 | 1197 | 1174 | 1150

CC1CCCC1 [methylcyclopentane] + CCCC(C)O
speed of sound [m/s], [2]
Conditions | 293.15 K | 298.15 K | 303.15 K
x1 = 0.0484 | 1244 | 1225 | 1206
x1 = 0.0999 | 1236 | 1217 | 1198
x1 = 0.1949 | 1223 | 1203 | 1183
x1 = 0.3177 | 1207 | 1187 | 1167
x1 = 0.4017 | 1198 | 1178 | 1157
x1 = 0.4945 | 1190 | 1169 | 1149
x1 = 0.6131 | 1184 | 1163 | 1141
x1 = 0.7107 | 1183 | 1161 | 1139
x1 = 0.815 | 1183 | 1161 | 1138
x1 = 0.9083 | 1187 | 1164 | 1141
x1 = 0.9535 | 1190 | 1167 | 1144
x1 = 1 | 1197 | 1174 | 1150

CC1CCCC1 [methylcyclopentane] + CCCCO
speed of sound [m/s], [2]
Conditions | 293.15 K | 298.15 K | 303.15 K
x1 = 0.0485 | 1250 | 1233 | 1216
x1 = 0.0993 | 1243 | 1226 | 1208
x1 = 0.1973 | 1231 | 1213 | 1194
x1 = 0.3038 | 1219 | 1200 | 1180
x1 = 0.4036 | 1210 | 1190 | 1169
x1 = 0.5055 | 1202 | – | –
x1 = 0.5078 | – | 1181 | 1160
x1 = 0.6152 | 1195 | 1173 | 1151
x1 = 0.7053 | 1191 | 1169 | 1146
x1 = 0.8132 | 1189 | 1166 | 1143
x1 = 0.9096 | 1190 | 1166 | 1143
x1 = 0.9537 | 1191 | 1168 | 1145
x1 = 1 | 1197 | 1174 | 1150

CC1CCCC1 [methylcyclopentane] + CCCO
speed of sound [m/s], [2]
Conditions | 293.15 K | 298.15 K | 303.15 K
x1 = 0.0475 | 1217 | 1199 | 1182
x1 = 0.0967 | 1211 | 1193 | 1175
x1 = 0.2055 | 1201 | 1182 | 1163
x1 = 0.2984 | 1195 | 1175 | 1155
x1 = 0.4014 | 1189 | 1169 | 1148
x1 = 0.5007 | 1185 | 1164 | 1142
x1 = 0.6133 | 1183 | 1161 | 1139
x1 = 0.7115 | 1183 | 1160 | 1137
x1 = 0.8124 | 1184 | 1161 | 1138
x1 = 0.9073 | 1188 | 1164 | 1141
x1 = 0.9529 | 1191 | 1167 | 1144
x1 = 1 | 1197 | 1174 | 1150

CC1CCCC1 [methylcyclopentane] + CCO
[2]
Conditions | mass density, 293.15 K [kg/m3] | mass density, 298.15 K [kg/m3] | mass density, 303.15 K [kg/m3] | speed of sound, 293.15 K [m/s] | speed of sound, 298.15 K [m/s] | speed of sound, 303.15 K [m/s]
x1 = 0.0475 | 784.54 | 780.2 | 775.84 | 1156 | 1138 | 1121
x1 = 0.0967 | 780 | 775.6 | 771.3 | 1153 | 1135 | 1117
x1 = 0.2055 | 771.61 | 767.12 | 762.58 | 1149 | 1130 | 1111
x1 = 0.2984 | 766.18 | 761.61 | 756.99 | 1150 | 1130 | 1110
x1 = 0.4014 | 761.37 | 756.73 | 752.03 | 1153 | 1132 | 1111
x1 = 0.5007 | 757.5 | 752.79 | 748.03 | 1158 | 1136 | 1114
x1 = 0.6133 | 753.79 | 749.03 | 744.21 | 1163 | 1141 | 1118
x1 = 0.7115 | 751.2 | 746.42 | 741.58 | 1168 | 1146 | 1123
x1 = 0.8124 | 748.98 | 744.19 | 739.34 | 1175 | 1152 | 1129
x1 = 0.9073 | 747.36 | 742.58 | 737.75 | 1183 | 1159 | 1136
x1 = 0.9529 | 746.95 | 742.17 | 737.35 | 1188 | 1164 | 1141
x1 = 1 | 746.64 | 741.94 | 737.21 | 1197 | 1174 | 1150

CCCC(C)O (stereo unspecified) [pentan-2-ol]
[1]
Conditions | mass density [kg/m3] | speed of sound [m/s] | viscosity [mPa·s]
293.15 K | 809.04 | 1250 | 4.001
298.15 K | 805.01 | 1232 | 3.273
303.15 K | 800.9 | 1214 | 2.774

CCCC(C)O (stereo unspecified) [pentan-2-ol] + CC1CCCC1
[2], x2 = 0
Conditions | speed of sound [m/s]
293.15 K | 1250
298.15 K | 1232
303.15 K | 1214

CCCO [propan-1-ol]
[1]
Conditions | mass density [kg/m3] | speed of sound [m/s] | viscosity [mPa·s]
293.15 K | 803.59 | 1223 | 2.159
298.15 K | 799.58 | 1206 | 1.915
303.15 K | 795.55 | 1189 | 1.713

CCCO [propan-1-ol] + CC1CCCC1
[2], x2 = 0
Conditions | speed of sound [m/s]
293.15 K | 1223
298.15 K | 1206
303.15 K | 1189

CC(C)O [propan-2-ol]
[1]
Conditions | mass density [kg/m3] | speed of sound [m/s] | viscosity [mPa·s]
293.15 K | 785.07 | 1156 | 2.382
298.15 K | 780.9 | 1139 | 2.045
303.15 K | 776.6 | 1121 | 1.763

CC(C)O [propan-2-ol] + CC1CCCC1
[2], x2 = 0
Conditions | speed of sound [m/s]
293.15 K | 1156
298.15 K | 1139
303.15 K | 1121
